Test results published in paper PMC9609871, “Binding and Kinetic Analysis of Human Protein Phosphatase PP2A Interactions with Caspase 9 Protein and the Interfering Peptide C9h” (Pharmaceutics, 2022).
Peptide text beside a SMILES is read from it. * marks the point of attachment. Biotin = O=C1N[C@H]2[C@H](CS[C@H]2CCCCC(=O)*)N1

Assays:
PP2A [1] = target: T1, PP2A (Homo sapiens, UniProt P67775); experiment: BLI: PP2A binding to immobilized biotinylated C9h-Cter peptide (Streptavidin biosensor)
T1 construct: purchased LSBio
Description: Kinetic measurements of PP2A against biotinylated C9h-Cter peptide were run with Streptavidin biosensors (Fortebio, #18-5019). The initial step consisted of coating the biosensor with the peptide diluted in SD at 100 µM for 180 s in 4 µL (not shown) and was followed by three steps for the kinetic study: (i) initial baseline in 300 µL SD for 30 s was measured; (ii) association of PP2A at the indicated concentrations for 180 s in 4 µL was used; and (iii) dissociation step was then monitored in 300 µL SD for 150 s.
Experiments using empty immunosensors (no ligand loaded) were run as control. Sensorgrams were fit globally to a 1:1 binding model by BLItz Pro software, from which the association (kon) and dissociation (koff) rate constants and apparent affinities (KD) were calculated. X2 is the sum of squared deviations between the actual data point and the fitted curve. Values close to zero indicate a good curve fit. The R2 coefficient of determination is a statistical measure of how well the fitted curve approximate the real data points. Values of R2 near 1 indicate a near-perfect fit.

PP2A [2] = target: T1, PP2A; experiment: ELISA: PP2A binding to immobilized biotinylated C9h peptides; conditions: OD 450 nm
Description: A total of 100 μL of biotinylated peptides diluted at 100 μM in PBS was incubated for 2 h at room temperature in a 96-well Streptavidine-coated plate (Pierce, Illkirch, Strasbourg, France). Wells were washed five times with PBS/0.05% Tween-20 (PBST) and filled with 100 μL of PP2A (Sigma) diluted in PBS/2.5% BSA (Sigma) at the indicated dilutions. The plate was incubated over night at 4 °C and washed five times with PBST. A total of 100 μL of rabbit polyclonal IgG anti-human PP2Aα (Santa Cruz Biotechnology, Heidelberg, Germany) was added at 5 μg/mL in PBS/BSA for 1 h at room temperature. Wells were washed 5 times with PBST and filled with 100 μL of HRP conjugated anti-rabbit IgG (Sigma) diluted at 1:20,000 in PBS/BSA for 1 h at room temperature. Wells were washed 5 times with PBST, and 100 μL of TMB substrate (Pierce) were added and incubated for 15–45 min. The reaction was stopped with 50 μL of 2 N sulphuric acid, and the absorbance was measured at 450 nm on a Multiskan EX plate reader (Thermo Scientific, Illkirch, Strasbourg, France). The Caspase 9 peptide C9h was labelled with biotin at the N-terminal and C-terminal end of the peptide.

Caspase 9 = experiment: BLI: Caspase 9 analyte binding to immobilized PP2A (Protein A biosensor, anti-PP2A); parameters: species or system human; conditions: summary: close to, Caspase 9 analyte on immobilized PP2A; read-out: affinity, both models
Description: Kinetic analysis was performed based on biolayer interferometry (BLI) by using a BLItz instrument (ForteBio, Bayonne, France) at room temperature. Prior to use, each biosensor was hydrated in sample diluent (SD: PBS1X, pH 7.0, 0.02% Tween 20, 0.1% BSA) for at least 10 min. Kinetic measurements of PP2A/Caspase 9 interactions were run with Protein A biosensors (Fortebio) and consisted of seven steps, all performed in reaction buffer, as follows: (i) initial baseline in 300 µL SD for 30 s was measured; (ii) 4 µL of mouse anti-Caspase 9 or rabbit anti-PP2A were immobilized on the sensor for 150 s at 133 nM; (iii) the immunosensor was washed with 300 µL SD for 120 s; (iv) 4 µL of purified ligand Caspase 9 at 566 nM (Origen) or PP2A at 694 nM (LSBio) were loaded on the immunosensor for 150 s; (v) the ligand-coated immunosensor was washed with 300 µL SD for 120 s; (vi) association of purified analytes diluted in SD at the mentioned concentrations was studied for 150 s in 4 µL; and (vii) dissociation step was then monitored in 300 µL SD for 120 s.
Experiments using empty immunosensors (no ligand loaded) were run as control. Sensorgrams were fit globally to a 1:1 binding model by BLItz Pro software, from which the association (kon) and dissociation (koff) rate constants and apparent affinities (KD) were calculated. […]

T1 sequence (P67775 whole entry): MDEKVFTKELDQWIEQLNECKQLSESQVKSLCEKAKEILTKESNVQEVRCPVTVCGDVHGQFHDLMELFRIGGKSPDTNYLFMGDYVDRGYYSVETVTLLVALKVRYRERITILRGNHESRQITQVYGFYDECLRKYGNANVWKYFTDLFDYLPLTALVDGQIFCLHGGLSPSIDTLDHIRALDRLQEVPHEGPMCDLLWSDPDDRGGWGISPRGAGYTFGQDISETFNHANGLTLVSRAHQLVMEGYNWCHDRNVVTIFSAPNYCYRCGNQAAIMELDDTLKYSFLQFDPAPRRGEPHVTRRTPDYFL

Row | Compound | koff (PP2A [1]; biotinylated C9h-Cter coated at 100 µM, analyte PP2A 463, 556 and 694 nM, pH 7.0, room temperature, dissociation 150 s, global 1:1 fit) [s⁻¹] | dissociation rate of PP2A relative to that with immobilized Caspase 9 (PP2A [1]; immobilized C9h-Cter versus immobilized Caspase 9) | affinity for PP2A compared with whole protein Caspase 9 (PP2A [1]; qualitative comparison) | signal recognition compared with C9h-Nter (PP2A [2]; PP2A 0.6 μg/mL, duplicate wells) | binding of PP2A to biotinylated peptide (PP2A [2]; peptide 100 μM on streptavidin plate, PP2A 0.6 μg/mL overnight at 4 °C, mean of duplicate wells, representative of two independent experiments, irrelevant biotinylated peptide as negative control) | Kd (Caspase 9) [µM]
1 | CC[C@H](C)[C@H](NC(=O)[C@H](CC(=O)O)NC(=O)[C@H](CC(=O)O)NC(=O)[C@H](CC(C)C)NC(=O)[C@@H](NC(=O)[C@H](CCC(=O)O)NC(=O)[C@@H](NC(=O)[C@@H](N)Cc1ccc(O)cc1)C(C)C)[C@@H](C)O)C(=O)N[C@@H](Cc1ccccc1)C(=O)N[C@@H](CCC(=O)O)C(=O)N[C@@H](CCC(N)=O)C(=O)N[C@@H](Cc1c[nH]c2ccccc12)C(=O)N[C@@H](C)C(=O)N[C@@H](Cc1c[nH]cn1)C(=O)N[C@@H](CO)C(=O)N[C@@H](CCC(=O)O)C(=O)N[C@@H](CC(=O)O)C(=O)N[C@@H](CC(C)C)C(=O)N[C@@H](CCCCNC(=O)CCCC[C@@H]1SC[C@@H]2NC(=O)N[C@@H]21)C(=O)O [C9h-Cter] (H-YVETLDDIFEQWAHSEDLK(Biotin)-OH; N-terminus and C-terminus assumed) | 0.0087 | approximatively one log higher | slightly lower affinity | stronger signal recognition than that of C9h-Nter | bind to the PP2A protein in a specific manner | –
2 | PP2A: protein phosphatase 2A (LSBio), serine/threonine phosphatase | – | – | – | – | – | ~0.1
